In ChEMBL document CHEMBL1777730, “Antimycobacterial activity of novel 1,2,4-oxadiazole-pyranopyridine/chromene hybrids generated by chemoselective 1,3-dipolar cycloadditions of nitrile oxides” (2011):
In brackets after ≈: the same amount, converted by molar mass.

tested on: Mycobacterium tuberculosis; test: Antimycobacterial activity against Mycobacterium tuberculosis H37Rv by agar dilution method; format: functional

| Structure (SMILES) | MIC [µM] |
| --- | --- |
| CN1CC2=C(OC(N)=C(c3nc(-c4ccc(Cl)cc4)no3)C2c2ccccc2)/C(=C/c2ccccc2)C1 (centres undefined) | 12.3 (≈ 6.25 µg/mL) |
| CN1CC2=C(OC(N)=C(c3nc(-c4ccc(Cl)cc4)no3)C2c2ccc(Cl)cc2)/C(=C/c2ccc(Cl)cc2)C1 (centres undefined) | 0.35 (≈ 0.202 µg/mL) |
| Cc1ccc(/C=C2\CN(C)CC3=C2OC(N)=C(c2nc(-c4ccc(Cl)cc4)no2)C3c2ccc(C)cc2)cc1 (centres undefined) | 3.28 (≈ 1.76 µg/mL) |
| COc1ccc(/C=C2\CN(C)CC3=C2OC(N)=C(c2nc(-c4ccc(Cl)cc4)no2)C3c2ccc(OC)cc2)cc1 (centres undefined) | 22 (≈ 12.5 µg/mL) |
| Cc1ccccc1/C=C1\CN(C)CC2=C1OC(N)=C(c1nc(-c3ccc(Cl)cc3)no1)C2c1ccccc1C (centres undefined) | 11.6 (≈ 6.25 µg/mL) |
| COc1ccccc1/C=C1\CN(C)CC2=C1OC(N)=C(c1nc(-c3ccc(Cl)cc3)no1)C2c1ccccc1OC (centres undefined) | 5.5 (≈ 3.13 µg/mL) |
| CN1CC2=C(OC(N)=C(c3nc(-c4ccc(Cl)cc4)no3)[C@@H]2c2cccc(F)c2)/C(=C/c2cccc(F)c2)C1 | 0.73 (≈ 0.398 µg/mL) |
| CN1CC2=C(OC(N)=C(c3nc(-c4ccc(Cl)cc4)no3)C2c2ccc(Cl)cc2Cl)/C(=C/c2ccc(Cl)cc2Cl)C1 (centres undefined) | 0.31 (≈ 0.201 µg/mL) |
| CN1CC2=C(OC(N)=C(c3nc(-c4ccc(Cl)cc4)no3)C2c2ccc(N(C)C)cc2)/C(=C/c2ccc(N(C)C)cc2)C1 (centres undefined) | 5.26 (≈ 3.13 µg/mL) |
| NC1=C(c2nc(-c3ccccc3)no2)C(c2ccc(Cl)cc2)C2=C(O1)/C(=C/c1ccc(Cl)cc1)CCC2 (centres undefined) | 23.7 (≈ 12.5 µg/mL) |
| COc1ccc(/C=C2\CCCC3=C2OC(N)=C(c2nc(-c4ccccc4)no2)[C@@H]3c2ccc(OC)cc2)cc1 | 24.1 (≈ 12.5 µg/mL) |
| NC1=C(c2nc(-c3ccccc3)no2)C(c2ccc(F)cc2)C2=C(O1)/C(=C/c1ccc(F)cc1)CCC2 (centres undefined) | 12.6 (≈ 6.26 µg/mL) |
| Cc1ccccc1/C=C1\CCCC2=C1OC(N)=C(c1nc(-c3ccccc3)no1)C2c1ccccc1C (centres undefined) | > 25 |
| COc1ccccc1/C=C1\CCCC2=C1OC(N)=C(c1nc(-c3ccccc3)no1)C2c1ccccc1OC (centres undefined) | 24.1 (≈ 12.5 µg/mL) |
| NC1=C(c2nc(-c3ccccc3)no2)C(c2cccc(F)c2)C2=C(O1)/C(=C/c1cccc(F)c1)CCC2 (centres undefined) | 12.6 (≈ 6.26 µg/mL) |
| N#CC1=C(N)OC2=C(CCC/C2=C\c2ccccc2)C1c1ccccc1 (centres undefined) | > 25 |
| N#CC1=C(N)OC2=C(CCC/C2=C\c2ccc(Cl)cc2)C1c1ccc(Cl)cc1 (centres undefined) | > 25 |
| Cc1ccc(/C=C2\CCCC3=C2OC(N)=C(C#N)C3c2ccc(C)cc2)cc1 (centres undefined) | > 25 |
| COc1ccc(/C=C2\CCCC3=C2OC(N)=C(C#N)C3c2ccc(OC)cc2)cc1 (centres undefined) | > 25 |
| N#CC1=C(N)OC2=C(CCC/C2=C\c2ccc(F)cc2)C1c1ccc(F)cc1 (centres undefined) | > 25 |
| N#CC1=C(N)OC2=C(CCC/C2=C\c2ccccc2Cl)C1c1ccccc1Cl (centres undefined) | > 25 |
| CC[C@@H](CO)NCCN[C@@H](CC)CO [ETHAMBUTOL] | 7.64 (≈ 1.56 µg/mL) |
| NNC(=O)c1ccncc1 [ISONIAZID] | 0.36 (≈ 0.0494 µg/mL) |
| CO[C@H]1/C=C/O[C@@]2(C)Oc3c(C)c(O)c4c(O)c(c(/C=N/N5CCN(C)CC5)c(O)c4c3C2=O)NC(=O)/C(C)=C\C=C\[C@H](C)[C@H](O)[C@@H](C)[C@@H](O)[C@@H](C)[C@H](OC(C)=O)[C@@H]1C [RIFAMPIN] | 0.12 (≈ 0.0988 µg/mL) |
